From PMC4389443 (Respiratory Research, 2015) come the findings set out here.

In data set [1] the test system is over 100 different macromolecular targets. Briefly: Off-target activity, Ricerca lead seeker selectivity panel. The conditions noted are these: other amine oxidases or over 100 different macromolecular targets.
Data set [2] deals with T1, Recombinant lysyl oxidase like 2 (Homo sapiens, UniProt Q9Y4K0).
T1 construct: purchased R&D systems
T1 sequence (Q9Y4K0 26-774): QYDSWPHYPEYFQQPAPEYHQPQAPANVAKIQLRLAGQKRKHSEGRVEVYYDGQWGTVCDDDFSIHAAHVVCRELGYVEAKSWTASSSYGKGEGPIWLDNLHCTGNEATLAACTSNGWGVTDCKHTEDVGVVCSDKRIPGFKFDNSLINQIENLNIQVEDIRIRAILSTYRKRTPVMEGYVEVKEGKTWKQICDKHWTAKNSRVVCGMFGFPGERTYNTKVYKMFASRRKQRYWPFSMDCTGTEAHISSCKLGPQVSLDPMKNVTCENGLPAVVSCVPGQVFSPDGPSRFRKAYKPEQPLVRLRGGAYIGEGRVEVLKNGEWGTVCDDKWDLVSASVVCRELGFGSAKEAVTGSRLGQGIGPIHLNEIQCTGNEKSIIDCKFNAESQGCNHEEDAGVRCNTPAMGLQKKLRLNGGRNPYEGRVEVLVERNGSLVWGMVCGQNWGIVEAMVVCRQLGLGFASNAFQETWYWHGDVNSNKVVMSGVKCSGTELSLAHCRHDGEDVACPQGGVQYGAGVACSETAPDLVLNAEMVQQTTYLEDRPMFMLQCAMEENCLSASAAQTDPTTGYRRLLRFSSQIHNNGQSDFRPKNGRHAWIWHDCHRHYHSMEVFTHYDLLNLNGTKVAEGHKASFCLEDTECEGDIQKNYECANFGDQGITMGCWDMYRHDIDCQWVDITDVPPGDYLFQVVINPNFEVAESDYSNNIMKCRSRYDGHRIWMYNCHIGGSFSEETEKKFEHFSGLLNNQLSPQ
Kind of data set: LOXL2 fluorometric enzyme activity assay. Format: biochemical. The method, then: rhLOXL2 (lysyl oxidase like 2) was purchased from R&D systems and assay was performed in 1.2 M urea, 50 mM sodium borate buffer, pH 8.2. The substrate used was 10 mM putrescine and 100 μM of β-aminopropionitrile (βAPN, Sigma-Aldrich) was added to the low controls.

Data set [3] in a line: Pharmacokinetics in Wistar rats. Format: in vivo. As to conditions: rat; for Cmax: read-out: Apparent concentration at curve maximum Cmax. The procedure:
(§1) Studies were performed by ICP Firefly, Pharmalegacy and Sundia with local ethics approval. […] Plasma was analyzed for PXS-4728A by high-performance liquid chromatography-mass spectrometry/mass spectrometry. Basic pharmacokinetic parameters were estimated using PK Solutions software (Summit Research Services).

In data set [4] the test system is HepG2 cells. Briefly: Cell toxicity in HepG2 cells. In kind it is cell-based. As to conditions: highest concentration tested 100 μM.
A further data set in a line: Plasma stability. As to conditions: rat plasma, 1 hour incubation. Format: in vitro ADME.
The target in data set [5] is T2, VAP-1/SSAO in gonadal fat tissue homogenate (Canis lupus familiaris, UniProt A0A8I3MYY3).
T2 sequence (A0A8I3MYY3 1-763): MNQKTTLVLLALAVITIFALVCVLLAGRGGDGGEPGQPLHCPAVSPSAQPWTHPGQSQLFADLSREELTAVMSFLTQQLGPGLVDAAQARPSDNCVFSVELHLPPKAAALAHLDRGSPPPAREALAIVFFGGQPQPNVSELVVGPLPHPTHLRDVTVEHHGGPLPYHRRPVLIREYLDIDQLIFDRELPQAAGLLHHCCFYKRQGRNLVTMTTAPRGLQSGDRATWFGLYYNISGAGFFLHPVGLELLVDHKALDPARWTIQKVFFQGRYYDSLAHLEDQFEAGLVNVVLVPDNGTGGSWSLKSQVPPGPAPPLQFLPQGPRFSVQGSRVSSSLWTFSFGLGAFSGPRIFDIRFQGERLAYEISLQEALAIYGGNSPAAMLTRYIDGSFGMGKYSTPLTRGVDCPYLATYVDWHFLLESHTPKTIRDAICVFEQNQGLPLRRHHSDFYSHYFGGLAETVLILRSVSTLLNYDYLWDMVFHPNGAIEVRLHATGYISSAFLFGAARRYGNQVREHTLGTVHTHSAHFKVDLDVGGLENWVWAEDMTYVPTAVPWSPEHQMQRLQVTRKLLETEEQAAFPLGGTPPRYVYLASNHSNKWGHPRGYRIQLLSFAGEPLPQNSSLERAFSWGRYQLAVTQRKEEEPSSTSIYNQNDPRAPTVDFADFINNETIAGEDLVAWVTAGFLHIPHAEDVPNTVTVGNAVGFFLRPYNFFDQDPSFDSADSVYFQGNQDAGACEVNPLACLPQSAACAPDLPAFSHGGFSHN
Briefly: SSAO activity, gonadal fat tissue homogenate. In kind it is biochemical. The conditions noted are these: dog.

The nature of data set [6]: Pharmacokinetics in BALB/c mice. The conditions noted are these: mouse; for Cmax: read-out: Apparent concentration at curve maximum Cmax. Format: in vivo. The method, then:
as §1

For data set [7], the system named is HepG2 cells. Briefly: Phospholipidosis in HepG2 cells. In kind it is cell-based. As to conditions: highest concentration tested 100 μM.

By IC50 is commonly meant the concentration that gives 50% inhibition. One may read the clearance as a measure of how efficiently the substance is removed, as volume per time. One may read the bioavailability as dose-corrected exposure relative to a reference, in per cent. With `CC(C)(C)NC(=O)c1ccc(OC/C(=C/F)CN)cc1` [PXS-4728A], in data set [1], the Off-target activity result is “does not have any significant off-target activity”. In addition, the values for the IC50 in data set [2] and in data set [5] were 10.4 µM and < 0.01 µM, respectively. Further, the Cmax in data set [3] (Wistar, plasma, intravenous 3 mg.kg^−1) is 4210 ng/mL; in data set [3] (Wistar, plasma, oral 6 mg.kg^−1) it was 720 ng/mL; in data set [6] (BALB/c, plasma, intravenous 5 mg.kg^−1), 1600 ng/mL; in data set [6] (BALB/c, plasma, oral 10 mg.kg^−1), 1380 ng/mL. The clearance in data set [3] (Wistar, plasma, intravenous 3 mg.kg^−1, read-out: Clearance CL) turned out to be 23 mL/min/kg; in data set [6] (BALB/c, plasma, intravenous 5 mg.kg^−1, read-out: Clearance CL), 80 mL/min/kg. The Tmax is 49.8 min in data set [3] (Wistar, plasma, oral 6 mg.kg^−1, read-out: Time of maximal concentration Tmax) and 15 min in data set [6] (BALB/c, plasma, oral 10 mg.kg^−1, read-out: Time of maximal concentration Tmax). Further, the half-life in data set [3] (Wistar, plasma, iv, 3 mg/kg, intravenous 3 mg.kg^−1, read-out: Apparent half-life, t1/2 (converted)) is ~60 min; in data set [6] (BALB/c, plasma, intravenous 5 mg.kg^−1, read-out: Apparent half-life, t1/2 (converted)) it was 36 min. The bioavailability in data set [3] (Wistar, plasma, oral, 6 mg.kg^−1, rat, oral 6 mg.kg^−1 / i.v. 3 mg.kg^−1) was > 55%; in data set [6] (BALB/c, plasma, oral, 10 mg.kg^−1, mouse, oral 10 mg.kg^−1 / i.v. 5 mg.kg^−1) it was > 90%. Besides, the results for the “Clearance CL” value in data set [3] (oral 6 mg.kg^−1) and in data set [6] (oral 10 mg.kg^−1) were 45 mL·kg/min and 98 mL·kg/min, respectively. The “Bioavailability (%)” value in data set [3] (oral 6 mg.kg^−1 / i.v. 3 mg.kg^−1) is 55%; in data set [6] (oral 10 mg.kg^−1 / i.v. 5 mg.kg^−1), 92%. The Cell toxicity entry with HepG2 cells [4] was “does not induce cell toxicity”. For the same compound, the “Plasma stability, remaining” value in “Plasma stability” is listed as > 90%. Further, the Phospholipidosis entry in the data set with HepG2 cells [7] is “does not induce”.
